We go through 3 molecules from patent US12227535B2, “Triterpene saponins, methods of synthesis and uses thereof” (SLOAN KETTERING INSTITUTE FOR CANCER RESEARCH, priority 2008, dated 2025).

Bounds are passed on as bounds.

One data set deals with GD3 ganglioside. Briefly: Anti-GD3 antibody ELISA after vaccination of mice with GD3-KLH conjugate plus QS-21 adjuvants (Example 4). The class given is in vivo, mice (C57BL/6J, female). As to conditions: after 3 weekly vaccinations with GD3-KLH; adjuvant doses 10 and 20 μg; compared with GD3-KLH alone. On the procedure: Using similar protocols, the immuno-potentiating properties of the synthetic adjuvants SQS-21-Api and SQS-21-Xyl were evaluated in mice (C57BL/6J, female, six weeks of age). […]
Groups of five mice were immunized with the melanoma antigen GD3 ganglioside conjugated to KLH (GD3-KLH) at a 10 μg antigen dose per vaccination. […] Immunopotentiation was assessed by testing for the presence of antibody against GD3 and KLH by ELISA, and against a tumor cell-line SK-MEL-28, expressing GD3 antigen, by FACS.
The antibody response after vaccination with GD3-KLH conjugate with or without adjuvant was determined with an ELISA assay using either GD3 ganglioside or KLH protein as target. […] After the third vaccination, no IgG antibodies against GD3 were detected; however, after the fourth immunization IgM and IgG antibody titers were induced in most mice. […]
In general terms: In an ELISA, binding on a coated surface is turned into a signal by an enzyme label.

Data set [1] in a line: Toxicity: loss of weight after each injection. The class given is in vivo, mice (C57BL/6J, female). As to conditions: monitored 0 h, 24 h, 48 h, 72 h after each injection; GD3-KLH 10 μg; adjuvant 20 μg; 4-week duration. Here is the method:
As a measure of toxicity, loss of weight was monitored at 0 h, 24 h, 48 h and 72 h after each injection. […] As the negative control, vaccinations employing GD3-KLH only (no adjuvant) led to no appreciable weight loss after each injection.

For data set [2] the following is noted: in vivo; cited from earlier work.

As to `CC[C@H](C)[C@H](C[C@H](O)CC(=O)O[C@H]1C(C)O[C@@H](OC(=O)[C@]23CCC(C)(C)CC2C2=CCC4C5(C)CC[C@H](O[C@@H]6OC(C(=O)O)[C@@H](O)[C@H](O[C@@H]7OC[C@@H](O)[C@H](O)C7O)C6O[C@@H]6OC(CO)[C@H](O)[C@H](O)C6O)[C@](C)(C=O)[C@@H]5CC[C@]4(C)[C@]2(C)CC3O)C(O[C@@H]2OC(C)[C@H](O[C@@H]3OC[C@@H](O)C(O[C@@H]4OCC(O)(CO)[C@@H]4O)C3O)C(O)C2O)C1O)OC(=O)C[C@@H](O)C[C@H](O[C@@H]1O[C@@H](CO)C(O)C1O)[C@@H](C)CC` (some centres unmarked) [SQS-21-Api, QS-21-Api], the “IgM antibody response against GD3 (antibody titers)” value with GD3 ganglioside was “significantly higher than the group with GD3-KLH alone”. Also, in data set [1], the “weight loss after each injection” value is recorded as “very similar”.
Take `CC[C@H](C)[C@H](C[C@H](O)CC(=O)O[C@H]1C(C)O[C@@H](OC(=O)[C@]23CCC(C)(C)CC2C2=CCC4C5(C)CC[C@H](O[C@@H]6OC(C(=O)O)[C@@H](O)[C@H](O[C@@H]7OC[C@@H](O)[C@H](O)C7O)C6O[C@@H]6OC(CO)[C@H](O)[C@H](O)C6O)[C@](C)(C=O)[C@@H]5CC[C@]4(C)[C@]2(C)CC3O)C(O[C@@H]2OC(C)[C@H](O[C@@H]3OC[C@@H](O)C(O[C@@H]4OC[C@@H](O)C(O)C4O)C3O)C(O)C2O)C1O)OC(=O)C[C@@H](O)C[C@H](O[C@@H]1O[C@@H](CO)C(O)C1O)[C@@H](C)CC` (some centres unmarked) [SQS-21-Xyl, QS-21-Xyl]: the “IgM antibody response against GD3 (antibody titers)” value in the data set with GD3 ganglioside is recorded as “significantly higher than the group with GD3-KLH alone”. Moreover, the “weight loss after each injection” value in data set [1] was “very similar”.
Take QS-21: in data set [2], the maximum dose was at most 50 µg.
